Measurements as given in PMC10087387, “Molecular docking, molecular dynamics simulations and in vitro screening reveal cefixime and ceftriaxone as GSK3β covalent inhibitors” (RSC Advances, 2023).
pIC50: −log10 of the molar value. Like-named read-outs stand apart in the source and are kept apart here.

How the values were obtained:
[1] = biological target: T1, GSK3β (Homo sapiens, UniProt P49841); experiment: Z'-LYTE kinase assay, […] ATP, […] min preincubation (IC50 […] without preincubation); type: biochemical
T1 construct: gene GSK3B

[2] = biological target: T1, GSK3β; experiment: as above; type: biochemical; remark: listed apart in the source

T1 sequence (P49841 whole entry): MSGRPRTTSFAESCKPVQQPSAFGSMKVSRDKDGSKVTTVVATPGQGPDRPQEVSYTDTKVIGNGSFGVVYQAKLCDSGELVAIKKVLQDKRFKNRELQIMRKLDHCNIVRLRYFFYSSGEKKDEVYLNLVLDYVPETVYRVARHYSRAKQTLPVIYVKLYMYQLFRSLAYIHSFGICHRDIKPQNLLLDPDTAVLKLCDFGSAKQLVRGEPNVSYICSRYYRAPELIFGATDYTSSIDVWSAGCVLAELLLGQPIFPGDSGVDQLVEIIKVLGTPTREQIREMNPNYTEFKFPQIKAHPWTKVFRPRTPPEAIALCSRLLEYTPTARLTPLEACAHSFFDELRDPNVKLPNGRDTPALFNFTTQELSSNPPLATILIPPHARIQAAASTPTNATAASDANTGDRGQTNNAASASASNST

| SMILES | pIC50 [1] | pIC50 [2] |
| --- | --- | --- |
| C=CC1=C(C(=O)O)N2C(=O)[C@@H](NC(=O)/C(=N\OCC(=O)O)c3csc(N)n3)[C@H]2SC1 [A, cefixime] | 6.26 |  |
| CO/N=C(\C(=O)N[C@@H]1C(=O)N2C(C(=O)O)=C(CSc3nc(=O)c(=O)[nH]n3C)CS[C@H]12)c1csc(N)n1 [B, ceftriaxone] |  | 6.11 |
